Holding throughout (assay type): cell-based, human
Series [1] has as its system THP-1 cells. Kind of series: Viability of THP-1 cells treated with glycitein, optionally with LPS and IFN-γ (cell counting kit). The settings on record: 24 hours. As for the experimental part: THP-1 cells (acquired from Korean Cell Line Bank) were seeded onto a 96-well plate, with 3×10^4 cells per well, and cultured in an RPMI-1640 medium (acquired from Lonza) containing 10% (v/v) FBS, 100 U/mL penicillin and 100 μg/mL streptomycin under the condition of 37° C. and 5% CO2 for 24 hours. […] After treating with a cell counting kit reagent, with 1/10 the volume of each well, and culturing for 2 hours, O.D. value was measured using SpectraMax.
In general terms: Formazan colour is commonly taken as a measure of viable cells.

The subject of series [2] is TNF-α. Kind of series: Production of TNF-α in THP-1 cells treated with glycitein and stimulants (TNF-α ELISA kit). The settings on record: THP-1 cells, 0, 0.1, 1 and 10 μM glycitein, then 1 μg/mL LPS and 500 UNITs IFN-γ, FIG. 9. Here is the method:
THP-1 cells (acquired from Korean Cell Line Bank) were seeded onto a 6-well plate, with 5×10^5 cells per well, and treated with 0, 0.1, 1 and 10 μM glycitein. […] After culturing for 24 hours, the culture medium was centrifuged at 1000 rpm for 3 minutes and the supernatant was taken. The concentration of TNF-α in the culture medium was determined using a TNF-α ELISA kit.

Series [3] relates to MMP-1. Kind of series: Production of MMP-1 in NHF cells treated with glycitein and stimulated THP-1 cell culture medium (MMP-1 assay kit). Particulars: NHF cells pretreated with 10 μM glycitein, then stimulated THP-1 culture medium, FIG. 12. Here is the method: THP-1 cells (acquired from Korean Cell Line Bank) were seeded onto a 6-well plate, with 5×10^5 cells per well, and cultured in an RPMI-1640 medium (acquired from Lonza) containing 10% (v/v) FBS, 100 U/mL penicillin and 100 μg/mL streptomycin under the condition of 37° C. and 5% CO2 for 24 hours. Also, NHF cells (acquired from Lonza) were seeded onto a 24-well plate, with 3×10^4 cells per well, and cultured in a DMEM medium (acquired from Lonza) containing 10% (v/v) FBS, 100 U/mL penicillin and 100 μg/mL streptomycin under the condition of 37° C. and 5% CO2 for 24 hours. […] The THP-1 cell culture medium was centrifuged at 1000 rpm for 3 minutes and the supernatant was taken. The NHF cells were treated with the supernatant. NHF cells treated with serum-free DMEM (acquired from Lonza) were used as an untreated group. After culturing for 24 hours, the concentration of MMP-1 in the NHF cells was measured using an MMP-1 assay kit and the ratio of the concentration of MMP-1 relative to the untreated group was calculated.

Series [4] relates to inflammatory cytokines. The experiment in a line: Production of inflammatory cytokines in THP-1 cells treated with glycitein and stimulants (cytokine array kit). The settings on record: 10 μM glycitein, then 1 μg/mL LPS and 500 UNITs IFN-γ, FIG. 10. Here is the method:
THP-1 cells (acquired from Korean Cell Line Bank) were seeded onto a 6-well plate, with 5×10^5 cells per well, and treated with 10 μM glycitein. […] The cells untreated or treated only with the stimulant were used as a control group. The culture medium was centrifuged at 1000 rpm for 3 minutes and the supernatant was taken. The inflammatory cytokines included in the cell culture medium were identified using a cytokine array kit (R&D Systems).

The subject of series [5] is NHF cells. Kind of series: Viability of NHF cells treated with glycitein and stimulants (cell counting kit). Particulars: 0.1-10 μM glycitein together with 1 μg/mL LPS and 500 UNITs IFN-γ, 24 hours, FIG. 11. Here is the method:
NHF cells (acquired from Lonza) were seeded onto a 96-well plate, with 1×10^4 cells per well, and cultured in a DMEM medium (acquired from Lonza) containing 10% (v/v) FBS, 100 U/mL penicillin and 100 μg/mL streptomycin under the condition of 37° C. and 5% CO2 for 24 hours. […] After treating with a cell counting kit reagent, with 1/10 the volume of each well, and culturing for 2 hours, then O.D. value was measured using SpectraMax.

Series [6] concerns THP-1 cells. The experiment in a line: Viability of THP-1 cells treated with LPS and IFN-γ (cell counting kit). Here is the method:
THP-1 cells (acquired from Korean Cell Line Bank) were seeded onto a 96-well plate, with 3×10^4 cells per well, and cultured in an RPMI-1640 medium (acquired from Lonza) containing 10% (v/v) FBS, 100 U/mL penicillin and 100 μg/mL streptomycin under the condition of 37° C. and 5% CO2 for 24 hours. […] After treating with a cell counting kit reagent, with 1/10 the volume of each well, and culturing for 2 hours, cell viability was determined by measuring O.D. value using SpectraMax.

For series [7], the system named is TNF-α. The experiment in a line: Production of TNF-α in THP-1 cells treated with LPS and/or IFN-γ (TNF-α ELISA kit). The settings on record: IFN-γ alone, all concentrations (250, 500, 1000 UNITs), FIG. 1. Here is the method:
THP-1 cells (acquired from Korean Cell Line Bank) were seeded onto a 6-well plate, with 5×10^5 cells per well, and cultured in an RPMI-1640 medium (acquired from Lonza) containing 10% (v/v) FBS, 100 U/mL penicillin and 100 μg/mL streptomycin under the condition of 37° C. and 5% CO2 for 24 hours. Subsequently, the cells were cultured for 24 hours after treating with three kinds of LPS derived from Escherichia coli (E. coli O111:B4, E. coli O55:B5 and E. coli EH100) and two kinds of LPS derived from Salmonella [Salmonella typhosa (S. typhosa) and Salmonella typhimurium (S. typhimurium), acquired from Sigma Aldrich], at concentrations of 0, 0.1 and 1 μg/mL, and with 0, 250, 500 and 1000 UNITs of INF-γ (acquired from Sigma Aldrich). Subsequently, the culture medium was centrifuged at 1000 rpm for 3 minutes and the supernatant was taken and then the concentration of TNF-α in the supernatant was determined using a TNF-α ELISA kit.
A general note: ELISA stands for enzyme-linked immunosorbent assay.

On to `COc1cc2c(=O)c(-c3ccc(O)cc3)coc2cc1O` [glycitein], for which the cytotoxicity result in series [1] (glycitein alone, 10 μM or lower, FIG. 7) is reported as “no cytotoxicity”; in series [1] (glycitein together with 1 μg/mL LPS and 500 UNITs IFN-γ, FIG. 8), “no cytotoxicity”; in series [5] it was “no cytotoxicity”. Further, the “concentration of TNF-α” value in series [2] is “lower as the concentration of glycitein increased”. Also, the “production of MMP-1” value in series [3] is “decreased production of MMP-1”. Further, in series [4], the “amount of the inflammatory cytokines produced upon treatment with the stimulant” value was “decreased”.

B1: IFN-γ: interferon-γ acquired from Sigma Aldrich, enhances inflammatory stimulation by LPS (protein, UniProt P01579 24-161, looked up)
Interferon gamma: QDPYVKEAENLKKYFNAGHSDVADNGTLFLGILKNWKEESDRKIMQSQIVSFYFKLFKNFKDDQSIQKSVETIKEDMNVKFFNSNKKKRDDFEKLTNYSVTDLNVQRKAIHELIQVMAELSPAAKTGKRKRSQMLFRG
Take B1: the cytotoxicity result in series [6] is given as “no cytotoxicity”. For the same molecule, the “effect on the production of TNF-α” value in series [7] is recorded as “no effect”.

Values taken from US9051596B2, “Method for screening inhibitory substances to inflammatory skin-aging” (AMOREPACIFIC CORPORATION, priority 2011, dated 2015).
